The results in this text go back to US8541607B2, “Disulfide, sulfide, sulfoxide, and sulfone derivatives of cyclic sugars and uses thereof” (Lacer, S.A., priority 2003, dated 2013).

Each structure is given as a SMILES string. Where a name gives a salt, the structure may show the parent alone.

In turn, `C[S@@+]([O-])[C@H]1CO[C@H]2[C@@H]1OC[C@H]2O[N+](=O)[O-]` (as salt: nitrate) [(4), 2-[(R)-methylsulfinyl]isosorbide 5-mononitrate] registered a melting point of 115 °C.

In general, melting point refers to the temperature, or range, at which the solid turns liquid.
